Assay results taken from ChEMBL document CHEMBL1201862, “PubChem BioAssay data set” (2004).
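Following 48 hours of exposure in 96-well plates, responses at five concentrations were used to interpolate endpoints linearly. Abbreviation: GI50, concentration required for 50% inhibition of growth.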 Calls of active or inactive are those of the source. Rule as the data show it: active = GI50 up to about 1.1 µM and inactive = higher.

What was measured:
Test in all cases: NCI tumour cell line growth inhibition, 48 h
SF-539 = tested on: SF-539
A549 = tested on: A549
HCC 2998 = tested on: HCC 2998
OVCAR-5 = tested on: OVCAR-5
PC-3 = tested on: PC-3
OVCAR-4 = tested on: OVCAR-4
LOX IMVI = tested on: LOX IMVI
SF-295 = tested on: SF-295
MCF7 = tested on: MCF7
A498 = tested on: A498
HOP-62 = tested on: HOP-62
HCT-116 = tested on: HCT-116
SW-620 = tested on: SW-620
HCT-15 = tested on: HCT-15
CCRF-CEM = tested on: CCRF-CEM
SNB-75 = tested on: SNB-75
SK-MEL-28 = tested on: SK-MEL-28
EKVX = tested on: EKVX
SF-268 = tested on: SF-268
786-0 = tested on: 786-0

| Compound | GI50 (SF-539) | GI50 (A549) | GI50 (HCC 2998) | GI50 (OVCAR-5) | GI50 (PC-3) | GI50 (OVCAR-4) | GI50 (LOX IMVI) | GI50 (SF-295) | GI50 (MCF7) | GI50 (A498) | GI50 (HOP-62) | GI50 (HCT-116) | GI50 (SW-620) | GI50 (HCT-15) | GI50 (CCRF-CEM) | GI50 (SNB-75) | GI50 (SK-MEL-28) | GI50 (EKVX) | GI50 (SF-268) | GI50 (786-0) |
| --- | --- | --- | --- | --- | --- | --- | --- | --- | --- | --- | --- | --- | --- | --- | --- | --- | --- | --- | --- | --- |
| COC(=O)[C@]1(c2cc3ccccc3[nH]2)CC2CN(CC(=O)N(C)OC)C1C1OC(C)(C)OC21 (stereo not given in full) | > 100 µM (inactive) | 33.3 µM (inactive) | 38 µM (inactive) | > 100 µM (inactive) | 42.5 µM (inactive) | 36.9 µM (inactive) | 59.7 µM (inactive) | 36.1 µM (inactive) | 36.1 µM (inactive) | 24 µM (inactive) | 83.9 µM (inactive) | 32.4 µM (inactive) | 93.3 µM (inactive) | 39.9 µM | 53.8 µM (inactive) | > 100 µM (inactive) | > 100 µM (inactive) | 63.5 µM (inactive) | > 100 µM (inactive) | 45.9 µM (inactive) |
| COC(=O)[C@H](C)NC(=O)C1(CNC(=O)[C@H](C)NC(=O)OC(C)(C)C)Cc2ccccc2-c2ccccc2C1 | 27 µM (inactive) | 19.4 µM (inactive) | 24.9 µM (inactive) | 19.9 µM (inactive) | 23.8 µM (inactive) | 21 µM (inactive) | 3.85 µM (inactive) | 21.4 µM (inactive) | 37.5 µM (inactive) | 35.7 µM (inactive) | 27 µM (inactive) | 33.8 µM (inactive) | 26.2 µM (inactive) | 15.7 µM | 18.7 µM (inactive) | 23.4 µM (inactive) | > 47.3 µM (inactive) | 19.3 µM (inactive) | 19.6 µM (inactive) | 19.6 µM (inactive) |
| O=C1c2ccccc2C(=O)N1CC1S(=O)(=O)OCCOS1(=O)=O | 98.4 µM (inactive) | > 100 µM (inactive) | > 100 µM (inactive) | > 100 µM (inactive) | > 100 µM (inactive) | > 100 µM (inactive) | > 100 µM (inactive) | > 100 µM (inactive) | > 100 µM (inactive) | > 100 µM (inactive) | > 100 µM (inactive) | > 100 µM (inactive) | > 100 µM (inactive) | > 100 µM | > 100 µM (inactive) | > 100 µM (inactive) | > 100 µM (inactive) | > 100 µM (inactive) | > 100 µM (inactive) | > 100 µM (inactive) |
| Nn1c(Sc2nc3ccccc3c(=O)n2N)nc2ccccc2c1=O | 2.48 µM (inactive) | 14.2 µM (inactive) | 15.2 µM (inactive) | 16.5 µM (inactive) | 11.7 µM (inactive) | 26.7 µM (inactive) | 1.64 µM (inactive) | 18.2 µM (inactive) | 4.1 µM (inactive) | 16 µM (inactive) | 16.6 µM (inactive) | 2.99 µM (inactive) | 2.29 µM (inactive) | 3.37 µM | 0.94 µM (active) | 11.6 µM (inactive) | 4.84 µM (inactive) | 17.5 µM (inactive) | 8.49 µM (inactive) | 4.72 µM (inactive) |
| Cc1cc(S(=O)(=O)Nc2nnc3c(Cl)cc(C(F)(F)F)cn23)c(S)cc1Cl | 35.7 µM (inactive) | 51.6 µM (inactive) | 44.8 µM (inactive) | > 100 µM (inactive) | 69.3 µM (inactive) | 66.5 µM (inactive) | > 86.3 µM (inactive) | 71.8 µM (inactive) | > 61.1 µM (inactive) | > 100 µM (inactive) | 54.5 µM (inactive) | 34.8 µM (inactive) | > 68.4 µM (inactive) | 58.1 µM | > 84.7 µM (inactive) | 4.88 µM (inactive) | > 100 µM (inactive) | 75 µM (inactive) | > 79.3 µM (inactive) | 57.1 µM (inactive) |
| CCCCCCCC/C=C1\CCC(CN2CCOCC2)C1=O (stereo not given) | 7.74 µM (inactive) | 15 µM (inactive) | 11.5 µM (inactive) | 20.4 µM (inactive) | 11.2 µM (inactive) | 13.3 µM (inactive) | 3.43 µM (inactive) | 14.7 µM (inactive) | 1.94 µM (inactive) | 15.8 µM (inactive) | 15.1 µM (inactive) | 3.53 µM (inactive) | 2.7 µM (inactive) | 3.09 µM | 2.79 µM (inactive) | 2.61 µM (inactive) | 9.35 µM (inactive) | 17.7 µM (inactive) | 9.35 µM (inactive) | 1.68 µM (inactive) |
